# Source: article PMC9916969 (International Journal of Molecular Sciences, 2023)
# Values joined by “and” are separate entries in the source; they are usually repeats but may differ in a detail not shown here. Identical values can stand only once. Like-named read-outs stand apart in the source and are kept apart here.
# Tests used:
# porcine liver CES = assay: In vitro CES inhibition (4-NPA substrate); type: biochemical; conditions: compound 20 µM, n.a. = not active
# Excerpt: (§1) Assessment of the esterase profile of new potential anti-AD molecules enables the estimation of both the primary pharmacological effects of the tested compounds—their inhibition of AChE and BChE—and their possible unwanted side effect—inhibition of CES, which hydrolyzes numerous ester-containing drugs. For the esterase profile evaluation, human erythrocyte AChE, equine serum BChE, and porcine liver CES were used. These sources of BChE and CES were employed because of their relatively low cost, high sequence identity to human enzymes, and the exploratory character of this work.
# (§2) Chromophore absorbances were measured with a FLUOStar Optima microplate reader (BMG Labtech, Ortenberg, Germany). […] Initially, we used a single concentration of 20 µM for all compounds.
# EeAChE PAS = target: T1, EeAChE PAS (Electrophorus electricus, UniProt O42275); type: binding; conditions: compound 20 µM; EeAChE 7 µM; propidium iodide 8 µM
# T1 construct: The enzyme was electric eel AChE (EeAChE type VI-S, lyophilized powder, Sigma-Aldrich); purchased Sigma-Aldrich type VI-S; host or cells: electric eel (tissue-derived)
# Excerpt: This method is widely used as a screening approach to assess the potential ability of compounds to block AChE-induced β-amyloid aggregation. This is because when the compounds bind to the AChE PAS, they prevent the binding of β-amyloid, thereby inhibiting its aggregation.
# The enzyme was electric eel AChE (EeAChE type VI-S, lyophilized powder, Sigma-Aldrich). We selected this source of AChE for consistency with our other reports and because of the purity, specific activity, and lower cost compared to human AChE.
# Propidium iodide (final concentration 8 μM) was then added for a further 15 min incubation, and the fluorescence spectrum was taken (530 nm excitation and 600 nm emission) using a FLUOStar Optima microplate reader. The same concentration of propidium iodide in the Tris buffer was used as the blank. Triplicate determinations were recorded and the results were calculated via the following equation:% Displacement = 100 − (IFAChE+ Propidium + inhibitor/IFAChE + Propidium) × 100, where IFAChE + Propidium = fluorescence intensity of propidium iodide associated with AChE in the absence of the test compound (taken as 100%), and IFAChE + Propidium + inhibitor = fluorescence intensity of propidium iodide associated with AChE in the presence of the test compound.
# β-amyloid (1–42) (Aβ42) = β-amyloid (1–42) (Aβ42) (Homo sapiens, UniProt P05067); assay: Inhibition of Aβ42 self-aggregation (thioflavin T); type: biochemical; conditions: for inhibition at 100 µM: read-out: Inhibition of Aβ42 Self-Aggregation
# Experimental: The inhibitory activity of tested hybrids against the self-aggregation of Aβ42 was determined in vitro using the thioflavin T (ThT) fluorimetric assay. According to [84], the ThT test is ideal for preliminary screening of inhibitors of Aβ42 self-aggregation, as it enables the quantitative testing of large numbers of compounds within a relatively short time.
# The influence of the inhibitory effect of the test compounds toward Aβ42 self-aggregation was determined using the thioflavin T (ThT) fluorescence method with minor modifications. This assay is based on a specific interaction between the fluorescent dye thioflavin T that binds to the β-sheets of assembled amyloid fibrils leading to a significant increase in fluorescence signal. Therefore, the decrease in ThT fluorescence correlates with the ability of the studied compounds to inhibit the formation of amyloid aggregates.
# One mg of lyophilized HFIP-pretreated Aβ42 from BACHEM (Bubendorf, Switzerland) was dissolved in DMSO to obtain a stable initial solution ([Aβ42] = 500 μM); then it was aliquoted and stored at −20 °C.
# For the measurement of Aβ42 self-aggregation and amyloid fibril inhibition studies by the tested compounds, aliquots of 500 μM Aβ42 stock solution were diluted in 215 mM Na-phosphate buffer pH = 8.0 to a final concentration of 50 μM Aβ42. Then the samples were incubated for 24 h at 37 °C without stirring in the absence (base level of Aβ42 self-aggregation, control) or presence of the test compounds. Myricetin and propidium iodide were used as reference compounds (positive controls). All compounds were used in a concentration of 100 µM. To quantify Aβ42 fibril formation, after incubation, 5 μM ThT in 50 mM glycine-NaOH buffer pH 8.5 was added to the solutions to a final concentration of 4 μM ThT and the fluorescence was measured at 440 nm (excitation) and 485 nm (emission). Analyses were performed with a FLUOStar Optima microplate reader (LabTech, Ortenberg, Germany). The blanks consisted of 215 mM Na-phosphate buffer, pH = 8.0, 20% (v/v) DMSO or test compounds, respectively. Each assay was run in triplicate.
# [1] = ABTS radical cation scavenging assay; set-up: key to ABTS^•+ Scavenging Activity, TEAC: TEAC: ratio of compound slope to Trolox slope (Trolox equivalents); conditions: 1 h incubation; for IC50: 50% reduction of ABTS radical cation; for ABTS^•+ Scavenging Activity, TEAC: Trolox equivalent, n.a. = not active
# Experimental: In the ABTS assay, the dark-green ABTS cation-radical (ABTS^•+) is quenched by interaction with AOs. The consequent decrease in absorbance is followed spectrophotometrically per the previously described method.
# Radical scavenging activity of the compounds was assessed using the ABTS radical cation (ABTS^•+) decolorization assay with some modifications. ABTS (2,2′-azinobis-(3-ethylbenzothiazoline-6-sulfonic acid) was purchased from Tokyo Chemical Industry Co., Ltd. (Tokyo, Japan); potassium persulfate (dipotassium peroxodisulfate), Trolox (6-hydroxy-2,5,7,8-tetramethylchroman-2-carboxylic acid), and HPLC-grade ethanol and DMSO were obtained from Sigma-Aldrich (Saint Louis, MO, USA). Aqueous solutions were prepared using deionized water. All tested compounds were dissolved in DMSO.
# The solution of cation radical ABTS^•+ was produced by incubation of an aqueous solution of 7 mM ABTS and 2.45 mM potassium persulfate solution in equal quantities for 12–16 h at room temperature in the dark. Radical scavenging capacity of the compounds was analyzed by mixing 10 μL of compound with 240 μL of ABTS^•+ working solution in ethanol (100 μM final concentration). The reaction was monitored for an hour at 30 °C with an interval of 10 min. Data are given for 1 h of incubation of compounds with ABTS^•+. The reduction in absorbance was measured spectrophotometrically at 734 nm using an xMark microplate UV/VIS spectrophotometer (Bio-Rad, Hercules, CA, USA). Ethanol blanks were run in each assay. Values were obtained from five replicates of each sample and three independent experiments.
# The standard AO Trolox was used as a reference compound. AO capacity as Trolox equivalent (TEAC) values was determined as the ratio between the slopes obtained from the linear correlation of the ABTS radical absorbance with the concentrations of tested compounds and Trolox. Ascorbic acid was used as a positive control. […]. The compounds were tested in the concentration range of 0.5–100 µM.
# FRAP assay = conditions: Trolox equivalents; 60 min, 37 °C; n.a. = not active
# Experimental: The Ferric Reducing Antioxidant Power (FRAP) test involves reduction of the ferric 2,4,6-tripyridyl-s-triazine complex [Fe(TPTZ)2]^3+ to an intense-blue ferrous complex [Fe(TPTZ)2]^2+ [92], as previously reported. Results are given as Trolox Equivalents (TE).
# The FRAP (ferric reducing antioxidant power) assay proposed by Benzie and Strain [92] was modified to be performed in 96-well microplates as described in detail in [53]. The FRAP reagent contained 2.5 mL of 10 mM TPTZ (2,4,6-tris(2-pyridyl)-s-triazine, Sigma-Aldrich) solution in 40 mM HCl, 2.5 mL of 20 mM FeCl3 (Sigma-Aldrich) in distilled water and 25 mL of 0.3 M acetate buffer (pH 3.6). Aliquots of 10 µL of the test compound dissolved in DMSO (0.5 mM) were placed in quadruplicate. Absorbance was measured at a wavelength of 593 nm after 60 min incubation at 37 °C. In each case, Trolox was used as a reference compound to obtain the standard curve. The AO activity was calculated with respect to the activity of Trolox and expressed as Trolox equivalents (TE)—the values calculated as the ratio of the concentrations of Trolox and the test compound resulting in the same effect on ferric reducing activity.
# equine serum BChE = target: T2, equine serum BChE (Equus caballus, UniProt P81908); assay: biochemical; conditions: mean ± SEM, n = 3, read-out: Inhibitory activity against BChE, IC50
# T2 construct: human erythrocyte AChE, equine serum BChE, and porcine liver CES were used; purchased Sigma-Aldrich; host or cells: equine serum (tissue-derived)
# Excerpt: as §1, §2
# AChE = target: T3, AChE (Homo sapiens, UniProt P22303); assay: Kinetic study of AChE inhibition (Lineweaver-Burk); type: biochemical; conditions: mixed-type inhibition; mean ± SEM
# T3 construct: human erythrocyte AChE, equine serum BChE, and porcine liver CES were used; purchased Sigma-Aldrich; host or cells: human erythrocytes (tissue-derived)
# Experimental: (§3) We assessed the mechanisms of AChE and BChE inhibition by performing a thorough analysis of enzyme kinetics. After a 5 min incubation at 25 °C (for temperature equilibration) with three increasing concentrations of inhibitor and six decreasing substrate concentrations, the residual enzyme activity was measured as described above for enzymatic assays.
# eqBChE = target: T4, eqBChE (Equus caballus, UniProt P81908); assay: Kinetic study of BChE inhibition (Lineweaver-Burk); type: biochemical; conditions: mixed-type inhibition, mean ± SEM
# T4 construct: human erythrocyte AChE, equine serum BChE, and porcine liver CES were used; purchased Sigma-Aldrich; host or cells: equine serum (tissue-derived)
# Experimental: Similar results were obtained for other tested compounds (Figures S61 and S62). The obtained values of inhibition constants (Ki = competitive component and αKi = non-competitive component) are shown in Table 2.
# as §3
# human erythrocyte AChE = target: T5, human erythrocyte AChE (Homo sapiens, UniProt P22303); assay: biochemical; conditions: mean ± SEM, n = 3, read-out: Inhibitory activity against AChE, IC50
# T5 construct: human erythrocyte AChE, equine serum BChE, and porcine liver CES were used; purchased Sigma-Aldrich; host or cells: human erythrocytes (tissue-derived)
# Excerpt: as §1, §2
# [2] = Aβ42 50 µM, compound 100 µM, 24 h, 37 °C, thioflavin T
# T5 sequence (P22303 32-617 isoform P22303-2 limits assumed): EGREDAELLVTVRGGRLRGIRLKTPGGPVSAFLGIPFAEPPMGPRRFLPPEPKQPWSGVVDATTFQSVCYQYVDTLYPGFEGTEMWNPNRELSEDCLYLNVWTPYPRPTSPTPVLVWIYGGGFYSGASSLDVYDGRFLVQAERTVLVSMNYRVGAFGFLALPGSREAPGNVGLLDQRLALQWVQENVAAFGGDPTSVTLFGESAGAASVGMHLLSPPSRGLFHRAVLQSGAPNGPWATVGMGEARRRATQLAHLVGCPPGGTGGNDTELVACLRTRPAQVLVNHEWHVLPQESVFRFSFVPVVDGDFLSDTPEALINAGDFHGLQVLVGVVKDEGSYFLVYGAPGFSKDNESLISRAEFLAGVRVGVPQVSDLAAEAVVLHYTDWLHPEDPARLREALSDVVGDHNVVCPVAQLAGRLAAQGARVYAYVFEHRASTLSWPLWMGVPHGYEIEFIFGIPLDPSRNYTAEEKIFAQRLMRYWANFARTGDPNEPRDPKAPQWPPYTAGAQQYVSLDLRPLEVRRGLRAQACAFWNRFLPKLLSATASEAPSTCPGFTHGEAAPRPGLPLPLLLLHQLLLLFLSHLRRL
# T2 sequence (P81908 whole entry): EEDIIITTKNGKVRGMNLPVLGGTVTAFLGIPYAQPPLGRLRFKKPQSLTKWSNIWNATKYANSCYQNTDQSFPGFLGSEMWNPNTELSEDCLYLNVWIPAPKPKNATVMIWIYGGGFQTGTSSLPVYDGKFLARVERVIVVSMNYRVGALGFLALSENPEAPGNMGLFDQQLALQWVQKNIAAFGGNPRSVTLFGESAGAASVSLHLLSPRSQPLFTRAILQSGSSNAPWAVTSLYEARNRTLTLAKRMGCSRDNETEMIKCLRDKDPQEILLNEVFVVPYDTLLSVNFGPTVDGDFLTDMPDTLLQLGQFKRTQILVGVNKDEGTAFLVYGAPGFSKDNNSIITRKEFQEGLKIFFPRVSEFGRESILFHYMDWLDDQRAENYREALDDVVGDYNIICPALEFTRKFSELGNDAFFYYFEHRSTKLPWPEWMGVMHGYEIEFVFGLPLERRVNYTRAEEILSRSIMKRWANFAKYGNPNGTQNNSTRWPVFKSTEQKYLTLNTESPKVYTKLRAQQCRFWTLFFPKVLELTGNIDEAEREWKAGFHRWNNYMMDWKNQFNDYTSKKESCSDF
# T1 sequence (O42275 24-633): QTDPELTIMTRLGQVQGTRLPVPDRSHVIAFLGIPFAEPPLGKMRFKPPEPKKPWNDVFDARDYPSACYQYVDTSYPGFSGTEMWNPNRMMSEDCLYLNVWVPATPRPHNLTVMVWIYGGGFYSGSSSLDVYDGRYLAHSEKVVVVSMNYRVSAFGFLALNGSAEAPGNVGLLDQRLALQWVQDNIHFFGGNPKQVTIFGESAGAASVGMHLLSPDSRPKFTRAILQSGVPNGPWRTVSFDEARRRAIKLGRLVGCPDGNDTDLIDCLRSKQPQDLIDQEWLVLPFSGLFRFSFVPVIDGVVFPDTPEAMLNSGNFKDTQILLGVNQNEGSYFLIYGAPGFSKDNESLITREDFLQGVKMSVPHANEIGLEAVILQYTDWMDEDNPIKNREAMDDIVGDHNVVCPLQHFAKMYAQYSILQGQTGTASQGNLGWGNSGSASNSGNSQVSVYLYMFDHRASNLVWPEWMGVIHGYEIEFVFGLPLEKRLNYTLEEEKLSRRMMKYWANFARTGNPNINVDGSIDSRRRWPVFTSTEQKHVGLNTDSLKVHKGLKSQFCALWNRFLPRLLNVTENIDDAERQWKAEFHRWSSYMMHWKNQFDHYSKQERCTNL
# Sequence of β-amyloid (1–42) (Aβ42) (P05067 672-713 limits assumed): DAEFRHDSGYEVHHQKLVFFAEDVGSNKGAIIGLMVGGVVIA
# T4 sequence (P81908 whole entry): as the sequence (P81908 whole entry) above
# T3 sequence (P22303 32-617 isoform P22303-2 limits assumed): as the sequence (P22303 32-617 isoform P22303-2 limits assumed) above
SMILES,"Inhibitory activity against CES, inhibition at 20 µM (porcine liver CES) [%]",Propidium Displacement from EeAChE PAS (EeAChE PAS) [%],inhibition at 100 µM (β-amyloid (1–42) (Aβ42); [2]) [%],IC50 [1] [µM],"ABTS^•+ Scavenging Activity, TEAC [1]","FRAP, TE (FRAP assay)",IC50 (equine serum BChE) [µM],"αKi (non-competitive inhibition constant), AChE (AChE) [µM]","αKi (non-competitive inhibition constant), eqBChE (eqBChE) [µM]","Ki (eqBChE; read-out: Ki (competitive inhibition constant), eqBChE) [µM]",IC50 (human erythrocyte AChE) [µM],Inhibition of Aβ42 Self-Aggregation (β-amyloid (1–42) (Aβ42); [2]) [%],inhibition at 100 µM (β-amyloid (1–42) (Aβ42)) [%]
O=C(NCCCCNc1c2c(nc3ccccc13)CCCC2)c1ccccc1O [5a],1.6 ± 1.1,11.8 ± 0.9,20.7 ± 1.6,25.3 ± 1.1,0.73 ± 0.04,0.02,,,,,,,
O=C(NCCCCCCCCNc1c2c(nc3ccccc13)CCCC2)c1ccccc1O [5c],29.5 ± 2.5,14.2 ± 1.1,71.9 ± 5.7,25.5 ± 1.1,0.75 ± 0.04,,0.0104 ± 0.0013,0.263 ± 0.018,0.0171 ± 0.0013,0.0106 ± 0.0007,,,
COc1ccccc1C(=O)NCCCCNc1c2c(nc3ccccc13)CCCC2 [6a],3.4 ± 0.7,10.2 ± 0.9,12.3 ± 0.9,,0.02 (n.a.),0.03,0.0105 ± 0.0007,,,,1.92 ± 0.13,,
"O=C(NCCCCNc1c2c(nc3ccccc13)CCCC2)c1cc(F)c(F)cc1O [7a, 4,5-Difluoro-2-hydroxy-N-[4-(1,2,3,4-tetrahydroacridin-9-ylamino)butyl]benzamide]",4.3 ± 0.9,10.4 ± 0.9,17.4 ± 1.2,> 200,0.06 and 0.060 ± 0.002,,0.0291 ± 0.0022,,,,0.5 ± 0.03,,
"COc1cc(F)c(F)cc1C(=O)NCCCCNc1c2c(nc3ccccc13)CCCC2 [8a, 4,5-Difluoro-2-methoxy-N-[4-(1,2,3,4-tetrahydroacridin-9-ylamino)butyl]benzamide]",6.5 ± 1.1,13.2 ± 1.0,10.4 ± 0.9,,,0.03,0.0547 ± 0.0034,,,,1.22 ± 0.07,,
"Oc1ccccc1C=NCCCCNc1c2c(nc3ccccc13)CCCC2 [10a, 2-[4-(1,2,3,4-Tetrahydroacridin-9-ylamino)butyliminomethyl]phenol]",20.8 ± 0.4,18.6 ± 1.6,57.9 ± 4.6,35.8 ± 1.9,0.42 ± 0.03,0.02,0.127 ± 0.006,,,,0.743 ± 0.044,,
"O=C1O[C@H]([C@@H](O)CO)C(O)=C1O [Ascorbic acid, reference compound]",,,,22.6 ± 1.2,0.96 ± 0.03,1.28 ± 0.11,,,,,,,
"CC[N+](C)(CC)CCC[n+]1c(-c2ccccc2)c2cc(N)ccc2c2ccc(N)cc21.[I-].[I-] [Propidium iodide, reference compound]",,,,,,,,,,,,90.7 ± 7.1,
"O=C(O)c1ccccc1O [Salicylic acid, reference compound]",8.9 ± 0.6,,,,no antiradical activity,0.02,47.6 ± 3.2,,,,,,6.5 ± 1.2
"Cc1c(C)c2c(c(C)c1O)CCC(C)(C(=O)O)O2 (stereo not shown) [Trolox, 6-hydroxy-2,5,7,8-tetramethylchroman-2-carboxylic acid, reference compound]",,,,19.8 ± 0.8,1.00,1.00,,,,,,,
